The target of one assay is T1, human EHMT2 913-1193 (Homo sapiens, UniProt Q96KQ7).
T1 construct: recombinant purified human EHMT2 913-1193, Viva; purchased Viva
T1 sequence (Q96KQ7 913-1193): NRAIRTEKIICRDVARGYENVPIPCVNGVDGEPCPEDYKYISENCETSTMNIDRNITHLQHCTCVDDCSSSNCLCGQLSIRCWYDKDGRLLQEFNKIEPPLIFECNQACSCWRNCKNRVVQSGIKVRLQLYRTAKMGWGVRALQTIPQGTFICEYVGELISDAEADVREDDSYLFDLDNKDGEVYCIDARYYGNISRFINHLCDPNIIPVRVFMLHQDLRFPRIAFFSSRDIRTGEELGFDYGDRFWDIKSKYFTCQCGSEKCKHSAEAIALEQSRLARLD
As to the kind of experiment: EHMT2 enzyme assay on histone peptide substrate. The class given is biochemical. Conditions: Table 3A; histone H3 1-15 peptide, balanced conditions; read-out: EHMT2 (IC50 μM). The source says:
Recombinant purified human EHMT2 913-1193 ([…]) synthesized by Viva was used for all experiments. Biotinylated histone peptides were synthesized by Biopeptide and HPLC-purified to >95% purity. Streptavidin Flashplates and seals were purchased from PerkinElmer and 384 Well V-bottom Polypropylene Plates were from Greiner. ^3H-labeled S-adenosylmethionine (^3H-SAM) was obtained from American Radiolabeled Chemicals with a specific activity of 80 Ci/mmol. Unlabeled SAM and S-adenosylhomocysteine (SAH) were obtained from American Radiolabeled Chemicals and Sigma-Aldrich respectively. Flashplates were washed in a Biotek ELx-405 with 0.1% Tween. 384-well Flashplates and 96-well filter binding plates were read on a TopCount microplate reader (PerkinElmer). Compound serial dilutions were performed on a Freedom EVO (Tecan) and spotted into assay plates using a Thermo Scientific Matrix PlateMate (Thermo Scientific). Reagent cocktails were added by Multidrop Combi (Thermo Scientific).
10-point curves of test compounds were made on a Freedom EVO (Tecan) using serial 3-fold dilutions in DMSO, beginning at 2.5 mM (final top concentration of compound was […] and the DMSO was 2%). A 1 μL aliquot of the inhibitor dilution series was spotted in a polypropylene 384-well V-bottom plate (Greiner) using a Thermo Scientific Matrix PlateMate (Thermo Scientific). The 100% inhibition control consisted of 1 mM final concentration of the product inhibitor S-adenosylhomocysteine (SAH, Sigma-Aldrich). Compounds were incubated for 30 minutes with 40 μL per well of 0.031 nM EHMT2 (recombinant purified human EHMT2 913-1193, Viva) in 1× assay buffer (20 mM Bicine [pH 7.5], 0.002% Tween 20, 0.005% Bovine Skin Gelatin and 1 mM TCEP). 10 μL per well of substrate mix comprising assay buffer, ^3H-SAM (^3H-labeled S-adenosylmethionine, American Radiolabeled Chemicals, specific activity of 80 Ci/mmol), unlabeled SAM (American Radiolabeled Chemicals), and peptide representing histone H3 residues 1-15 containing C-terminal biotin (appended to a C-terminal amide-capped lysine, synthesized by Biopeptide and HPLC-purified to greater than 95% purity) were added to initiate the reaction (both substrates were present in the final reaction mixture at their respective Km values, an assay format referred to as “balanced conditions”). Reactions were incubated for 60 minutes at room temperature and quenched with 10 μL per well of 400 μM unlabeled SAM, then transferred to a 384-well streptavidin Flashplate (PerkinElmer) and washed in a Biotek ELx-405 well washer with 0.1% Tween after 60 minutes. 384-well Flashplates were read on a TopCount microplate reader (PerkinElmer).

The test system of assay [1] is H3K9me2 in MDA-MB-231 cells. As to the kind of experiment: MDA-MB-231 H3K9me2 in-cell western assay (EHMT2 ICW). The class given is cell-based. As to conditions: Homo sapiens, Table 3A, read-out: ICW (IC50 μM). The source says: MDA-MB-231 cell line was purchased from ATCC (Manassas, Va., USA). RPMI/Glutamax medium, Penicillin-Streptomycin, Heat Inactivated Fetal Bovine Serum, and D-PBS were purchased from Life Technologies (Grand Island, N.Y., USA). Odyssey blocking buffer, 800 CW goat anti-mouse IgG (H+L) antibody, and Licor Odyssey Infrared Scanner were purchased from Licor Biosciences, Lincoln, Nebr., USA. H3K9me2 mouse monoclonal antibody (Cat #1220) was purchased from Abcam (Cambridge, Mass., USA). 16% Paraformaldehyde was purchased from Electron Microscopy Sciences, Hatfield, Pa., USA). MDA-MB-231 cells were maintained in complete growth medium (RPMI supplemented with 10% v/v heat inactivated fetal bovine serum) and cultured at 37° C. under 5% C02. UNC0638 was purchased from Sigma-Aldrich (St. Louis, Mo., USA).
General Procedure for MDA-MB-231 HEK9me2 in-Cell Western Assay.
Compound (100 nL) was added directly to 384-well cell plate. MDA-MB-231 cells (ATCC) were seeded in assay medium (RPMI/Glutamax supplemented with 10% v/v heat inactivated fetal bovine serum and 1% Penicillin/Streptomycin, Life Technologies) at a concentration of 3,000 cells per well to a Poly-D-Lysine coated 384-well cell culture plate with 50 μL per well. Plates were incubated at 37° C., 5% CO2 for 48 hours (BD Biosciences 356697). […] After the incubation, 50 μL per well of 8% paraformaldehyde (Electron Microscopy Sciences) in PBS was added to the plates and incubated at room temperature for 20 minutes. Plates were transferred to a Biotek 406 plate washer and washed 2 times with 100 μL per well of wash buffer (1×PBS containing 0.3% Triton X-100 (v/v)). Next, 60 μL per well of Odyssey blocking buffer (Licor Biosciences) was added to each plate and incubated for 1 hour at room temperature. Blocking buffer was removed and 20 μL of monoclonal primary antibody α-H3K9me2 (Abcam) diluted 1:800 in Odyssey buffer with 0.1% Tween 20 (v/v) were added and plates were incubated overnight (16 hours) at 4° C. Plates were washed 5 times with 100 μL per well of wash buffer. Next 20 μL per well of secondary antibody was added (1:500 800 CW donkey anti-mouse IgG (H+L) antibody (Licor Biosciences), 1:1000 DRAQ5 (Cell Signaling Technology) in Odyssey buffer with 0.1% Tween 20 (v/v)) and incubated for 1 hour at room temperature. The plates were washed 5 times with 100 μL per well wash buffer then 2 times with 100 μL per well of water. Plates were allowed to dry at room temperature then imaged on a Licor Odyssey Infrared Scanner (Licor Biosciences) which measured integrated intensity at 700 nm and 800 nm wavelengths. Both 700 and 800 channels were scanned.
First, the ratio for each well was determined by:
Each plate included fourteen control wells of DMSO only treatment (Minimum Inhibition) as well as fourteen control wells (background wells) for maximum inhibition treated with control compound UNC0638 (Background wells).
The average of the ratio values for each well was calculated and used to determine the percent inhibition for each test well in the plate. Control compound was serially diluted three-fold in DMSO for a total of 10 test concentrations beginning at 1 μM. Percent inhibition was calculated as: […]
IC50 curves were generated using triplicate wells per concentration of compound. The IC50 is the concentration of compound at which measured methylation is inhibited by 50% as interpolated from the dose response curves. IC50 values were calculated using a non-linear regression (variable slope-four parameter fit model) with by the following formula:
where Top is fixed at 100% and Bottom is fixed to 0%, [I]=concentration of inhibitor, IC50=half maximal inhibitory concentration and n=Hill Slope.

The IC50 is the concentration needed to halve the response being measured.

As for `CNC1=Nc2cc(-c3cc4ccncc4[nH]3)c(Cl)cc2C12CCC2` [Compound A44], the IC50 at human EHMT2 913-1193 is 0.01 to 0.1 µM; in assay [1] it was 0.1 to 1 µM.

Take `CNC1=Nc2cc(-c3[nH]c4cnccc4c3C)c(Cl)cc2C12CCC2` [Compound A45]: the results for the IC50 (on human EHMT2 913-1193; in assay [1]) were < 0.01 µM and 0.01 to 0.1 µM, respectively. Take `CNCc1cn(-c2cc3c(cc2OC)C2(CCC2)C(NC)=N3)cn1` [Compound A47]: the half-inhibitory concentration (IC50) on human EHMT2 913-1193 was 0.01 to 0.1 µM; in assay [1], 0.1 to 1 µM. In the case of `CNCc1cn(-c2cc3c(cc2Cl)C2(CCC2)C(NC)=N3)cn1` [Compound A48], the IC50 (on human EHMT2 913-1193; in assay [1]) was > 1 µM in each case. For the compound `CNC1=Nc2cc(-n3cc4c(n3)CCCNC4)c(Cl)cc2C12CCC2` [Compound A51], the IC50 (at human EHMT2 913-1193; in assay [1]) was < 0.01 µM throughout. Regarding `CNC1=Nc2cc(-n3cc([C@H]4CCCN4C)nn3)c(Cl)cc2C12CCC2` [Compound A52R], the IC50 (on human EHMT2 913-1193; in assay [1]) was 0.01 to 0.1 µM throughout.

In the case of `CNC1=Nc2cc(-n3cc([C@H]4CCCN4C)nn3)c(OC)cc2C12CCC2` [Compound A59R], the IC50 at human EHMT2 913-1193 is < 0.01 µM; in assay [1], 0.1 to 1 µM. Consider `CNc1cc(C)nc(Nc2ccc(OC)c(-n3ncc4c3CCCNC4)c2F)n1` [Compound A62], for which the figures for the 50% inhibitory concentration (IC50) (at human EHMT2 913-1193; in assay [1]) were < 0.01 µM and 0.01 to 0.1 µM, respectively. On to `CNc1cc(C)nc(Nc2ccc(OC)c(-n3ncc4c3CCCNC4=O)c2F)n1` [Compound A63], for which the IC50 on human EHMT2 913-1193 was > 1 µM. In the case of `CNc1cc(C)nc(Nc2ccc(OC)c(-n3cc4c(n3)CCCN(C)C4)c2F)n1` [Compound A66], the IC50 on human EHMT2 913-1193 was < 0.01 µM. As to `CNC1=Nc2cc(-n3cc4c(n3)CCCN(C)C4)c(Cl)cc2C12CCC2` [Compound A68], the IC50 (at human EHMT2 913-1193; in assay [1]) was < 0.01 µM each time. Regarding `CCN1CCCc2nn(-c3cc4c(cc3Cl)C3(CCC3)C(NC)=N4)cc2C1` [Compound A69], the IC50 is < 0.01 µM on human EHMT2 913-1193 and 0.01 to 0.1 µM in assay [1]. Regarding `CNC1=Nc2cc(-n3cc4c(n3)CCCNC4)c(OC)cc2C12CCC2` [Compound A70], the IC50 (on human EHMT2 913-1193; in assay [1]) was < 0.01 µM throughout.

These data come from patent US20200317642A1, “AMINE-SUBSTITUTED HETEROCYCLIC COMPOUNDS AS EHMT2 INHIBITORS AND DERIVATIVES THEREOF” (Epizyme, Inc., priority 2017, published 2020).
